Results published in patent publication US6737383B1, “Herbicidal oxadiazolidines” (priority 1999, dated 2004).

Columns and labels:
Conditions in all cases: 0 to 10 scale where 0 is no effect and 10 is complete control
[1] = test system: velvetleaf; assay: Test A velvetleaf; assay type: in vivo, Abutilon theophrasti
Description: (§1) Seeds of barnyardgrass (Echinochloa crus-galli), crabgrass (Digitaria spp.), morningglory (Ipomoea spp.), and velvetleaf (Abutilon theophrasti) were planted into a sandy loam soil and treated preemergence by soil drench with test chemicals formulated in a non-phytotoxic solvent mixture which includes a surfactant At the same time, these crop and weed species were also treated postemergence sprayed to runoff, with test chemicals formulated in the same manner.
(§2) Plants ranged in height from two to eighteen cm and were in the one to two leaf stage for the postemergence treatment. Treated plants and untreated controls were maintained in a greenhouse for approximately eleven days, after which all treated plants were compared to untreated controls and visually evaluated for injury. Plant response ratings, summarized in Table A, are based on a 0 to 10 scale where 0 is no effect and 10 is complete control.

[2] = test system: morningglory; assay: Test A morningglory; assay type: in vivo, Ipomoea spp.
Description: as §1, §2

[3] = test system: crabgrass; assay: Test A crabgrass; assay type: in vivo, Digitaria spp.
In short: (§3)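 Visual injury score, 0 (no effect) to 10 (complete control), vs untreated controls at ~11 d in greenhouse. Pre: soil drench on sandy loam. Post: spray to runoff, 1–2 leaf stage.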

[4] = test system: barnyardgrass; assay: Test A barnyardgrass; assay type: in vivo, Echinochloa crus-galli
In short: as §3

CC(C)N(C(=O)n1oc(=O)[nH]c1=O)c1ccc(Cl)cc1 [Compound 377]
0: Plant response rating, Velvetleaf ([1]; Postemergence, Rate 1000 g/ha) | Plant response rating, Velvetleaf ([1]; Pre-emergence, Rate 2000 g/ha) | Plant response rating, Morningglory ([2]; Postemergence, Rate 1000 g/ha) | Plant response rating, Morningglory ([2]; Pre-emergence, Rate 2000 g/ha) | Plant response rating, Crabgrass ([3]; Postemergence, Rate 1000 g/ha) | Plant response rating, Crabgrass ([3]; Pre-emergence, Rate 2000 g/ha) | Plant response rating, Barnyardgrass ([4]; Postemergence, Rate 1000 g/ha) | Plant response rating, Barnyardgrass ([4]; Pre-emergence, Rate 2000 g/ha)
